This assay has as its system Recombinant CHO cells expressing an IgG1. The assay can be described thus: Fed-batch process with SSC feed; relative quantification of trisulfide linked peptides in IgG by LC-MS peptide mapping. The assay is classed as cell-based. Conditions: for mean reduction of trisulfide, LC-HC linked peptides: SSC feed (15 mM in main feed) compared to control condition with cysteine in separate feed; for mean reduction of trisulfide, linkage between cysteine 259 and cysteine 319 in the heavy chain: SSC feed compared to control condition with cysteine in separate feed. The procedure:
Recombinant CHO cells expressing an IgG1 were grown in fully chemically defined basal media (Cellvento® CHO 220) containing 1.5 mM cysteine. At days 3, 5, 7, 10, 14; feed(s) containing either cysteine or S-sulfocysteine were added.
For the control condition, the main feed included vitamins, trace elements and amino acid except cysteine because of the low stability of this amino acid. 150 mM of cysteine was dissolved in a separate feed at pH 11. The main feed was added at 3%, 6%, 6%, 6% and 6% (v/v) whereas cysteine was added at 0.3%, 0.6%, 0.6%, 0.6% and 0.6% on day 3, 5, 7, 10 and 14, respectively.
For the SSC condition, the main feed included the same vitamins, trace elements and amino acids and was further supplemented with 15 mM of S-sulfocysteine di-sodium salt. The main feed was added 3%, 6%, 6%, 6% and 6% (v/v) day 3, 5, 7, 10 and 14 respectively, resulting in the same amount of cysteine source when compared to the control condition. Glucose was monitored on a daily basis for both conditions and adjusted to 6 g/L using a 400 g/L solution.
The process was performed in 1.2 L bioreactors at 37° C., pH 7.0, 50% dissolved oxygen, agitation 140 rpm.
Samples were taken from the bioreactors for the trisulfide analysis on day 13 and day 18. After sampling, cell culture supernatant was centrifuged 5 min at 1500 rpm, the IgG concentration was quantified using an automatic turbidometric method (Cedex bioHT) and frozen for further processing.
IgG were purified from the frozen samples using protein A binding (Phytips method) and were eluted in 200 mM NAH2PO4; 140 mM NaCl and 96 mM Tris HCl and quantified again.
First, the free cysteines in the samples were alkylated by addition of N-ethylmaleiimide (10 mM solution in 0.1 M Na acetate buffer pH 5.0) for 30 min in the dark.
For digestion with Lys-C, 55 μL digestion buffer (8 M urea, 0.1 M Tris, pH 7) and 15 μL Lys-C enzyme (Promega, V1671) were added and the samples were incubated for 4 hours at 37° C. Subsequently, the samples were diluted to 1 M urea by addition of […] and were digested by addition of 12 μL trypsin over night at 37° C. The final antibody concentration was 50 mg/L. For the analysis of the disulfide and trisulfide bonds, the sample was treated with 10% formic acid (4.4 μL) to stop the digestion and analyzed by LC-MS.
The peptide mixture obtained was injected and separated using reversed phase HPLC (RSLC3000 nano LC, Thermo Scientific Dionex, Idstein, Germany). A nanoLC column (Acquity UPLC M-Class HSS T3, 1.8 μm, 75 μm×150 mm, Waters) with a cartridge (PM100, C18, 5 μm, 0.3×5 mm, Thermo Scientific Dionex, Idstein, Germany) was used for preconcentration and separation of the sample. Blank runs and column wash runs were performed within consecutive sample runs. […]

Consider `N[C@@H](CSS(=O)(=O)[O-])C(=O)[O-].[Na+].[Na+]` [SSC, S-sulfocysteine di-sodium salt], for which, where the note is “day 13 of fed-batch”, the “mean reduction of trisulfide, LC-HC linked peptides” value came to 93.3%; the “mean reduction of trisulfide, linkage between cysteine 259 and cysteine 319 in the heavy chain” value is recorded as 46.7%. For the same molecule, for the setting “day 18 of fed-batch”, the “mean reduction of trisulfide, LC-HC linked peptides” value is 92.4%; the “mean reduction of trisulfide, linkage between cysteine 259 and cysteine 319 in the heavy chain” value is on record as 25.9%.

The values above are taken from US11220668B2, “Method for reducing the trisulfide level in proteins” (Merck Patent GmbH, priority 2016, dated 2022).
